ChEMBL document CHEMBL1158878, “New phomopsolides from a Penicillium sp” (1997)

Legend:
Type in all cases: functional
[1] = tested on: Staphylococcus aureus; experiment: Antimicrobial activity against Staphylococcus aureus at 100 ug by antimicrobial disk assay; details: read-out: IZ
[2] = tested on: Staphylococcus aureus; experiment: Antimicrobial activity against Staphylococcus aureus at 25 ug by antimicrobial disk assay; details: read-out: IZ
[3] = tested on: Staphylococcus aureus; experiment: Antimicrobial activity against Staphylococcus aureus at 50 ug by antimicrobial disk assay; details: read-out: IZ
[4] = tested on: Staphylococcus aureus; experiment: Antimicrobial activity against Staphylococcus aureus at 10 ug by antimicrobial disk assay; details: read-out: IZ
[5] = tested on: Staphylococcus aureus; experiment: Antimicrobial activity against Staphylococcus aureus at 30 ug by antimicrobial disk assay; details: read-out: IZ
[6] = tested on: Staphylococcus aureus; experiment: Antimicrobial activity against Staphylococcus aureus at 10 units by antimicrobial disk assay

C/C=C/C1=C(C)C(=O)C(C)(O)O1 (centres undefined)
zone of inhibition at 100 µg/disc [1]: 9 mm

C/C=C(\C)C(=O)O[C@H]1C=CC(=O)O[C@H]1/C=C/C(=O)C(C)O (some centres undefined)
zone of inhibition at 25 µg/disc [2]: 22 mm

C/C=C(\C)C(=O)O[C@H]1C=CC(=O)O[C@H]1CCC(=O)C(C)O (some centres undefined) [6,7-DIHYDROPHOMOPSOLIDE A]
zone of inhibition at 50 µg/disc [3]: 9 mm

C/C=C(\C)C(=O)O[C@H]1C=CC(=O)O[C@H]1CC[C@H](O)[C@H](C)O [6,7-DIHYDROPHOMOPSOLIDE B]
zone of inhibition at 100 µg/disc [1]: 10 mm

CN[C@@H]1[C@H](O[C@H]2[C@H](O[C@H]3[C@H](O)[C@@H](O)[C@H](N=C(N)N)[C@@H](O)[C@@H]3N=C(N)N)O[C@@H](C)[C@]2(O)C=O)O[C@@H](CO)[C@H](O)[C@H]1O [STREPTOMYCIN]
zone of inhibition at 10 µg/disc [4]: 13 mm

CN(C)[C@@H]1C(O)=C(C(N)=O)C(=O)[C@@]2(O)C(O)=C3C(=O)c4c(O)cccc4[C@@](C)(O)[C@H]3C[C@@H]12 [TETRACYCLINE]
zone of inhibition at 30 µg/disc [5]: 38 mm

C/C=C(\C)C(=O)O[C@H]1C=CC(=O)O[C@H]1/C=C/[C@H](O)[C@H](C)O [PHOMOPSOLIDE B]
zone of inhibition at 25 µg/disc [2]: 20 mm

CC1(C)S[C@@H]2[C@H](NC(=O)Cc3ccccc3)C(=O)N2[C@H]1C(=O)O [PENICILLIN G]
inhibition zone (IZ) [6]: 22 mm

C/C=C(\C)C(=O)O[C@H]1C=CC(=O)O[C@H]1/C=C\C(=O)C(C)O (some centres undefined) [PHOMOPSOLIDE A]
zone of inhibition at 25 µg/disc [2]: 22 mm
